In patent US12673077B2, “Anthelmintic probiotic compositions and methods” (priority 2014, dated 2026):
Like-named read-outs stand apart in the source and are kept apart here.

B1: Cry5B: Bacillus thuringiensis crystal (Cry) protein Cry5B, purified protein (sequence FIG. 2, SEQ ID NO:1) (protein, listed as Bacillus thuringiensis)
chain: MATINELYPVPYNVLAHPIKEVDDPYSWSNLLKGIQEGWEEWGKTGQKKLFEDHLTIAWNLYKTGKLDYFALTKASISLIGFIPGAEAAVPFINMFVDFVWPKLFGANTEGKDQQLFNAIMDAVNKMVDNKFLSYNLSTLNKTIEGLQGNLGLFQNAIQVAICQGSTPERVNFDQNCTPCNPNQPCKDDLDRVASRFDTANSQFTQHLPEFKNPWSDENSTQEFKRTSVELTLPMYTTVATLHLLLYEGYIEFMTKWNFHNEQYLNNLKVELQQLIHSYSETVRTSFLQFLPTLNNRSKSSVNAYNRYVRNMTVNCLDIAATWPTFDTHNYHQGGKLDLTRIILSDTAGPIEEYTTGDKTSGPEHSNITPNNILDTPSPTYQHSFVSVDSIVYSRKELQQLDIATYSTNNSNNCHPYGLRLSYTDGSRYDYGDNQPDFTTSNNNYCHNSYTAPITLVNARHLYNAKGSLQNVESLVVSTVNGGSGSCICDAWINYLRPPQTSKNESRPDQKINVLYPITETVNKGTGGNLGVISAYVPMELVPENVIGDVNADTKLPLTQLKGFPFEKYGSEYNNRGISLVREWINGNNAVKLSNSQSVGIQITNQTKQKYEIRCRYASKGDNNVYFNVDLSENPFRNSISFGSTESSVVGVQGENGKYILKSITTVEIPAGSFYVHITNQGSSDLFLDRIEFVPKIQFQFCDNNNLHCDCNNPVDTDCTFCCVCTSLTDCDCNNPRGLDCTLCCQVENQLPSFVTLTDLQNITTQVNALVASSEHDTLATDVSDYEIEEVVLKVDALSGEVFGKEKKALRKLVNHTKRLSKARNLLIGGNFDNLDAWYRGRNVVNVSDHELFKSDHVLLPPPTLYSSYMFQKVEESKLKANTRYTVSGFIAHAEDLEIVVSRYGQEVKKVVQVPYGEAFPLTSRGAICCPPRSTSNGKPADPHFFSYSIDVGTLDVEANPGIELGLRIVERTGMARVSNLEIREDRPLKKNELRNVQRAARNWRTAYDQERAEVTALIQPVLNQINALYENEDWNGAIRSGVSYHDLEAIVLPTLPKLNHWFMSDMLGEQGSILAQFQEALDRAYTQLEESTILHNGHFTTDAANWTIEGDAHHAILEDGRRVLRLPDWSSSVSQTIEIENFDPDKEYQLVFHAQGEGTVSLQHGEEGEYVETHPHKSANFTTSHRQGVTFETNKVTVEITSEDGEFLVDHIALVEAPLPTDDQSSDGNTTSNTNSNTSMNNNQ
modifications: pesticidal crystal (Cry)

How the values were obtained:
A. ceylanicum = settings: cited from earlier work; for % Parasite reduction: hamsters
[1] = system: Ancylostoma ceylanicum hookworms; test: A. ceylanicum hookworm curative experiment in hamsters (worm burdens, fecal egg counts); assay type: in vivo; settings: single 10 mg/kg (71 nmol/kg) Cry5B dose per os
Description: (A) Intestinal hookworm burdens in nine hamsters following treatment with PY79-vector or PY79-Cry5B (10 mg/kg Cry5B) (error bars in all panels show standard errors). The average worm burdens were 18.6±2.6 and 1.3±0.3 for PY79-vector and PY79-Cry5B, respectively. (B) Fecal egg counts on day −1, day +1, and day +3 relative to the day of treatment. The actual egg counts for PY79-vector and PY79-Cry5B were 965±193 and 1,044±99, respectively, on day −1, 1,055±230 and 94±60, respectively, on day +1, and 1,055±227 and 100±42, respectively, on day +3. EPG, eggs per gram of feces. (C) In vivo dose-response experiment with 12 hamsters. […]
For in vivo curative experiments, male hamsters were infected per os with 150 A. ceylanicum infectious larvae. On day 17 postinoculation (p.i.), a fecal sample was collected from each hamster, and the number of eggs was counted using the modified McMaster technique (13). […] The hamsters were sacrificed on day 22 p.i., and intestinal parasite burdens were determined as described previously (14). The one-tailed Mann-Whitney test was performed to compare the two groups for significance in the experiment using a dose of 10 mg/kg of body weight (data were calculated and plotted using Prism 5 [GraphPad Software Inc., La Jolla, CA]). […]

Molecule | % Parasite reduction (A. ceylanicum; 10 mg/kg) [%] | further results
CCCSc1ccc2nc(NC(=O)OC)[nH]c2c1 [Albendazole, albendazole] | – | % Parasite reduction (A. ceylanicum; 1.25 mg/kg (4.7 μmol/kg)): 88%
C/C(=N/c1ccc(/N=C/c2ccc(/C=N/c3ccc(/N=C(/C)N(C)C)cc3)cc2)cc1)N(C)C [Tribendimidine, tribendimidine] | 75 | –
CN1CCCN=C1/C=C/c1cccs1 [Pyrantel, pyrantel] | 87 | –
c1ccc([C@H]2CN3CCSC3=N2)cc1 [Levamisole, levamisole] | 60 | –
B1 | – | % reduction of hookworm burden relative to control [1]: 93%; % reduction of hookworm burden (A. ceylanicum; purified protein 10 mg/kg, previously published data (ref 14)): 65%
